According to patent US20120015961A1, “ISOTHIOUREA DERIVATIVES OR ISOUREA DERIVATIVES HAVING BACE1 INHIBITORY ACTIVITY” (SHIONOGI & CO., LTD., priority 2009, published 2012):

Columns and labels:
Recombinant human BACE1 = target: T1, Recombinant human BACE1 (Homo sapiens, UniProt P56817); assay: Assay of BACE1 inhibiting activity; assay type: biochemical; settings: 50% inhibitory concentration against enzymatic activity, pH 5.0, 30° C., 3 hours
T1 construct: purchased R&D Systems
Description: 48.5 μL of substrate peptide solution (Biotin-XSEVNLDAEFRHDSGC-Eu: Xεε-amino-n-capronic acid, Eu=Europium cryptate) was added to each well of 96-hole half-area plate (a black plate: Costar Corporation), and after addition of 0.5 μl of the test compound (dissolved in […]) and 1 μl of Recombinant human BACE1 (R&D Systems), the reaction mixture was incubated at 30° C. for 3 hours. The substrate peptide was synthesized by reacting Cryptate TBPCOOH mono SMP (CIS bio international) with Biotin-XSEVNLDAEFRHDSGC (Peptide Institute, Inc.). The final concentrations of the substrate peptide and Recombinant human BACE1 were adjusted to 18 nM and 7.4 nM respectively, and the reaction was performed in sodium acetate buffer (50 mM sodium acetate, pH 5.0, 0.008% Triton X-100). After the completion of reaction, 50 μl of 8.0 μg/ml Streptavidin-XL665 (CIS bio international) dissolved in phosphate buffer (150 mM K2HPO4—KH2PO4, pH 7.0, 0.008% Triton X-100, 0.8 M KF) was added to each well and left stand at 30° C. for an hour. Then, fluorescence intensity was measured (excitation wavelength: 320 nm, measuring wavelength: 620 nm and 665 nm) using Wallac 1420 multilabel counter (Perkin Elmer life sciences). Enzymatic activity was determined from counting ratio of each wavelength (10,000×Count 665/Count 620) and 50% inhibitory concentration against the enzymatic activity was calculated.

[1] = test system: Neuroblastoma SH-SY5Y cells (SH/APPwt) with human wild-type β-APP excessively expressed; assay: Measurement of β-amyloid (Aβ) production inhibitory effect in cell; assay type: cell-based; settings: amount needed to inhibit Aβ production by 50%, 24 hours incubation, Amyloid β1-40 HTRF
Description: Neuroblastoma SH-SY5Y cells (SH/APPwt) with human wild-type β-APP excessively expressed therein were prepared at 8×10^5 cells/mL, and 150 μl portions thereof were inoculated into each well of a 96-well culture plate (Falcon). The cells were cultured for 2 hours at 37° C. in a 5% gaseous carbon dioxide incubator. Then, a solution which had been preliminarily prepared by adding and suspending the test compound (DMSO (dimethyl sulfoxide) solution) so as to be 2 μl/50 μl medium was added to the cell sap. Namely, the final DMSO concentration was 1%, and the amount of the cell culture was 200 μl. After the incubation was performed for 24 hours from the addition of the test compound, 100 μl of the culture supernatant was collected from each fraction. The amount of the Aβ in each fraction was measured.
The […] was measured as follows. 10 μl of a homogeneous time resolved fluorescence (HTRF) measurement reagent (Amyloid β1-40 peptide; IBA Molecular Holding, S.A.) and 10 μl of the culture supernatant were put into a 384-well half area microplate (black microplate, Costar) and mixed with each other, and then left standing overnight at 4° C. while the light was shielded. Then, the fluorescence intensity (excitation wavelength: 337 nm, measurement wavelength: 620 nm and 665 nm) was measured with a Wallac 1420 multilabel counter (Perkin Elmer life sciences). The Aβ amount was determined from the count rate at each measurement wavelength (10000×Count 665/Count 620), and the amount needed to inhibit Aβ production by 50% (IC50) was calculated from at least six different dosages.

T1 sequence (P56817 46-501): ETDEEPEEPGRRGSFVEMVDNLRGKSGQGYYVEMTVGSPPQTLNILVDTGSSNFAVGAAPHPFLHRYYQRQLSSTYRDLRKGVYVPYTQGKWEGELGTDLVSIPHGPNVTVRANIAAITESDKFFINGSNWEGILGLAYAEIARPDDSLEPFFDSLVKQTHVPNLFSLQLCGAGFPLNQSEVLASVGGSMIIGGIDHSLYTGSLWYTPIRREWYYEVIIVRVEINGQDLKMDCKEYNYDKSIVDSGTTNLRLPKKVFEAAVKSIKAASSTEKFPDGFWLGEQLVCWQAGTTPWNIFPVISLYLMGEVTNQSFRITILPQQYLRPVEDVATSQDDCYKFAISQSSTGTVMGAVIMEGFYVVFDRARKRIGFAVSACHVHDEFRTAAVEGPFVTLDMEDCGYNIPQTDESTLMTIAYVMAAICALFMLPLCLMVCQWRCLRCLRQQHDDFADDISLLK

Row | IC50 (Recombinant human BACE1) [µM] | IC50 ([1]; Homo sapiens, SH-SY5Y, 24 h) [µM] | IC50 [1] [µM] | SMILES
1 | ≤ 1 | ≤ 1 | – | CO/C(N)=N/C(C)(c1ccc(F)cc1)c1cccc(NC(=O)c2ccc(C#N)cn2)c1 (single isomer, unassigned) [Compound 101]
2 | ≤ 1 | ≤ 1 | – | CC#CCOc1cnc(C(=O)Nc2cccc(C/N=C(/N)SCc3cccnc3)c2)cn1 [Compound 10]
3 | ≤ 1 | ≤ 1 | – | CC#CCOc1cnc(C(=O)Nc2cccc(C3(/N=C(/N)SC)CC3)c2)cn1 [Compound 14]
4 | ≤ 1 | ≤ 1 | – | CC#CCOc1cnc(C(=O)Nc2ccc(F)c(C/N=C(/N)SC)c2)cn1 [Compound 16]
5 | ≤ 1 | ≤ 1 | – | CC#CCOc1cnc(C(=O)Nc2cccc(C/N=C(/N)SCCCO)c2)cn1 [Compound 17]
6 | ≤ 1 | ≤ 1 | – | CC#CCOc1cnc(C(=O)Nc2cccc(C(/N=C(/N)SC)c3ccc(OC)cc3)c2)cn1 (centres unmarked) [Compound 21]
7 | – | ≤ 1 | – | COc1ccc(C(/N=C(/N)SC)c2cccc(NC(=O)c3ncc(Cl)cc3Cl)c2)cc1 (centres unmarked) [Compound 22]
8 | – | ≤ 1 | – | COc1ccc(C(/N=C(/N)SC)c2cccc(NC(=O)c3ccc(C#N)cn3)c2)cc1 (centres unmarked) [Compound 23]
9 | – | ≤ 1 | – | COc1ccc(C(/N=C(/N)SC)c2cccc(NC(=O)c3cnc(OC)cn3)c2)cc1 (centres unmarked) [Compound 24]
10 | – | ≤ 1 | – | COc1cnc(C(=O)Nc2ccc(F)c(C(C)/N=C(/N)SC)c2)cn1 (centres unmarked) [Compound 26]
11 | – | ≤ 1 | – | CS/C(N)=N\C(C)c1cc(NC(=O)c2ccc(C#N)cn2)ccc1F (centres unmarked) [Compound 27]
12 | – | ≤ 1 | – | CO/C(N)=N/Cc1cccc(NC(=O)c2ccc(C#N)cn2)c1 [Compound 33]
13 | – | ≤ 1 | – | CCCO/C(N)=N\Cc1cccc(NC(=O)c2ccc(C#N)cn2)c1 [Compound 34]
14 | – | ≤ 1 | – | COCCO/C(N)=N\Cc1cccc(NC(=O)c2ccc(C#N)cn2)c1 [Compound 35]
15 | – | ≤ 1 | – | COCCCO/C(N)=N/Cc1cccc(NC(=O)c2ccc(C#N)cn2)c1 [Compound 37]
16 | – | ≤ 1 | – | CO/C(N)=N\Cc1cc(NC(=O)c2ccc(C#N)cn2)ccc1F [Compound 42]
17 | – | ≤ 1 | – | CO/C(N)=N\Cc1cc(NC(=O)c2cnc(OC)cn2)ccc1F [Compound 43]
18 | – | ≤ 1 | – | CO/C(N)=N\C1(c2cc(NC(=O)c3ccc(C#N)cn3)ccc2F)CC1 [Compound 46]
19 | – | ≤ 1 | – | CO/C(N)=N\C1(c2cc(NC(=O)c3cnc(OC)cn3)ccc2F)CC1 [Compound 47]
20 | ≤ 1 | ≤ 1 | – | CO/C(N)=N/C(c1cccc(F)c1)c1cccc(NC(=O)c2ccc(C#N)cn2)c1 (centres unmarked) [Compound 51]
21 | ≤ 1 | ≤ 1 | – | CO/C(N)=N\[C@H](c1ccc(F)cc1)c1cccc(NC(=O)c2ccc(C#N)cn2)c1 [Compound 52]
22 | ≤ 1 | ≤ 1 | – | CO/C(N)=N/C(c1cccc(NC(=O)c2ccc(C#N)cn2)c1)c1cccc(OC)c1 (centres unmarked) [Compound 53]
23 | ≤ 1 | ≤ 1 | – | CO/C(N)=N\C(c1cccc(NC(=O)c2ccc(C#N)cn2)c1)c1ccc2c(c1)CCO2 (centres unmarked) [Compound 54]
24 | ≤ 1 | ≤ 1 | – | CO/C(N)=N\C(c1cccc(NC(=O)c2ccc(C#N)cn2)c1)c1ccc(OC)c(F)c1 (centres unmarked) [Compound 55]

Row | IC50 (Recombinant human BACE1) [µM] | IC50 ([1]; Homo sapiens, SH-SY5Y, 24 h) [µM] | IC50 [1] [µM] | SMILES
25 | ≤ 1 | ≤ 1 | – | CO/C(N)=N\C(c1ccc(OC)cc1)c1cccc(NC(=O)c2ccc(C#N)cn2)c1 (centres unmarked) [Compound 57]
26 | ≤ 1 | 0.018 | – | CO/C(N)=N\C(c1ccc(OC)cc1)c1cccc(NC(=O)c2cnc(OC)cn2)c1 (centres unmarked) [Compound 58]
27 | – | ≤ 1 | – | CC#CCOc1cnc(C(=O)Nc2cccc(C(C)(C)/N=C(/N)SC)c2)cn1 [Compound 64]
28 | ≤ 1 | ≤ 1 | – | CC#CCOc1cnc(C(=O)Nc2ccc(Oc3ccccc3)c(C/N=C(/N)SC)c2)cn1 [Compound 68]
29 | ≤ 1 | ≤ 1 | – | CC#CCOc1cnc(C(=O)Nc2ccc(Oc3cccc(OC)c3)c(C/N=C(/N)SC)c2)cn1 [Compound 70]
30 | ≤ 1 | ≤ 1 | – | CO/C(N)=N\c1cccc2ccc(NC(=O)c3ccc(C#N)cn3)cc12 [Compound 75]
31 | ≤ 1 | ≤ 1 | – | CS/C(N)=N\c1c(C)ccc2ccc(NC(=O)c3ccc(C#N)cn3)cc12 [Compound 79]
32 | – | ≤ 1 | – | CO/C(N)=N/C(C)c1cccc(NC(=O)c2ccc(C#N)cn2)c1 (centres unmarked) [Compound 82]
33 | – | ≤ 1 | – | CO/C(N)=N/C(C)c1cccc(NC(=O)c2cnc(OC)cn2)c1 (centres unmarked) [Compound 83]
34 | – | ≤ 1 | – | CO/C(N)=N/C(C)c1cc(NC(=O)c2ccc(C#N)cn2)ccc1F (centres unmarked) [Compound 84]
35 | – | ≤ 1 | – | CO/C(N)=N/C(C)c1cc(NC(=O)c2cnc(OC)cn2)ccc1F (centres unmarked) [Compound 85]
36 | ≤ 1 | – | 0.024 | CO/C(N)=N/C(C)(c1ccc(F)cc1)c1cccc(NC(=O)c2ccc(C#N)cn2)c1 (centres unmarked) [Compound 88]
37 | – | ≤ 1 | – | CO/C(N)=N\C(c1ccc(Cl)cc1)c1cccc(NC(=O)c2cnc(C)cn2)c1 (centres unmarked) [Compound 90]
38 | ≤ 1 | ≤ 1 | – | CO/C(N)=N\C(c1ccc(Cl)cc1)c1cccc(NC(=O)c2ccc(C#N)cn2)c1 (centres unmarked) [Compound 91]
39 | ≤ 1 | ≤ 1 | – | CO/C(N)=N\C(c1ccc(Cl)cc1)c1cccc(NC(=O)c2cnc(OC)cn2)c1 (centres unmarked) [Compound 92]
40 | ≤ 1 | ≤ 1 | – | CO/C(N)=N\C(c1ccc(Cl)cc1)c1cccc(NC(=O)c2ccc(Cl)cn2)c1 (centres unmarked) [Compound 93]
41 | 0.032 | ≤ 1 | – | CC#CCOc1cnc(C(=O)Nc2cccc(C(/N=C(/N)OC)c3ccc(Cl)cc3)c2)cn1 (centres unmarked) [Compound 94]
42 | ≤ 1 | ≤ 1 | – | COC(=N)NC(c1ccc(OC(C)C)cc1)c1cccc(NC(=O)c2ccc(C#N)cn2)c1 (centres unmarked) [Compound 95]
43 | ≤ 1 | ≤ 1 | – | COC(=N)NC(c1ccc(OCc2ccccc2)cc1)c1cccc(NC(=O)c2ccc(C#N)cn2)c1 (centres unmarked) [Compound 96]
44 | ≤ 1 | ≤ 1 | – | [2H]C([2H])([2H])Oc1cnc(C(=O)Nc2cccc(C3(/N=C(/N)OC)CC3)c2)cn1 [Compound 97]
45 | ≤ 1 | ≤ 1 | – | CO/C(N)=N/C(C)(c1ccc(OC)cc1)c1cccc(NC(=O)c2ccc(C#N)cn2)c1 (centres unmarked) [Compound 98]
46 | – | ≤ 1 | – | CO/C(N)=N\C(c1cccc(NC(=O)c2ccc(C#N)cn2)c1)C(F)(F)F (centres unmarked) [Compound 99]
47 | ≤ 1 | ≤ 1 | – | [2H]C([2H])([2H])Oc1ccc(C(NC(=N)OC)c2cccc(NC(=O)c3ccc(C#N)cn3)c2)cc1 (centres unmarked) [Compound 102]
